Experiments:
[1] = target: GABA-A receptor; anion channel; experiment: Affinity to displace [3H]flunitrazepam from Benzodiazepine receptor in bovine brain membrane; format: cell membranes
[2] = target: GABA-A receptor; anion channel (Bos taurus) (UniProt P10063+P08220+P20237+P08219+P10064+P22300); experiment: Percent inhibition of [3H]flunitrazepam binding to GABA-A Benzodiazepine receptor of bovine brain membranes at 34 uM; format: cell membranes

Compound	IC50 [1]	inhibition [2]
Cc1cccc(-n2nc(-c3ccccc3)c3c(=O)n(C)c4ccccc4c32)c1	90 nM	
Cc1cccc(-n2nnc3c(=O)oc4ccccc4c32)c1		18%
O=c1oc2ccccc2c2c1cc(-c1ccccc1)n2-c1ccccc1		30%
Cc1cc(C)cc(-n2cc(-c3ccccc3)c3c(=O)oc4ccccc4c32)c1	8.6 nM	
Cc1ccc(-n2cc(-c3ccccc3)c3c(=O)oc4ccccc4c32)cc1	172 nM	
CN1C(=O)CN=C(c2ccccc2)c2cc(Cl)ccc21 [DIAZEPAM]	13 nM	
COc1cccc(-n2nc(C)c3c(O)nc4ccccc4c32)c1	7500 nM	
COc1cccc(-n2cc(-c3ccccc3)c3c(=O)oc4ccccc4c32)c1	48 nM	
Cn1c(=O)c2c(-c3ccccc3)nn(-c3cccc(Cl)c3)c2c2ccccc21	70 nM	
O=c1oc2ccccc2c2c1c(-c1ccccc1)cn2-c1cccc(Cl)c1	10 nM	
O=c1oc2ccccc2c2c1c(-c1ccccc1)cn2-c1ccc(Cl)cc1	40 nM	
O=c1oc2ccccc2c2c1nnn2-c1ccccc1		0%
Cc1nn(-c2cccc(Br)c2)c2c1c(O)nc1ccccc12	2500 nM	
COC(=O)c1cc2c(cn1)[nH]c1ccccc12 [BETA-CCM]	16 nM	
COc1ccc(-n2cc(-c3ccccc3)c3c(=O)oc4ccccc4c32)cc1	62 nM	
Cc1cccc(-n2cc(-c3ccccc3)c3c(=O)oc4ccccc4c32)c1	25 nM	
O=c1oc2ccccc2c2c1c(-c1ccccc1)cn2-c1ccccc1	65 nM	
